The numbers were not newly measured in US9968546B2, “Topical composition for skin treatment to reduce lines and wrinkles of the face and body using a dual DNA repair mechanism to address damage caused by aging and ultra-violet induced damage to the skin with combination of skin turgor enhancement compounds” (priority 2015, dated 2018), which cites them from elsewhere.

For data set [1] the following is noted: clinically, versus regular Vitamin E.
The test system of another data set is melanin synthesis. The settings on record: concentration of 0.1%.

In the case of Tocotrienol, the “strength and effectiveness at repairing skin damage relative to regular Vitamin E” value in data set [1] was 40-50 times.
With `CC1(C)C=Cc2c(ccc3c2OC[C@@H](c2ccc(O)cc2O)C3)O1` [Glabridin], the “tyrosinase-inhibition activity relative to Kojic acid” value with tyrosinase (versus Kojic acid) is 25 times. For the same molecule, the “tyrosinase-inhibition activity relative to ascorbic acid” value with tyrosinase (versus ascorbic acid) is 75 times.
Turning to `CCCCCCCCC(CCCCCC)C(=O)OC[C@H](OC(=O)C(CCCCCC)CCCCCCCC)[C@H]1OC(=O)C(OC(=O)C(CCCCCC)CCCCCCCC)=C1OC(=O)C(CCCCCC)CCCCCCCC` (stereo partly drawn) [tetrahexyldecyl ascorbate], the “reduction of melanin synthesis” value with melanin synthesis is listed as 80%. Further, the “p53 expression induced by UV-B radiation” value in the data set on p53 expression is on record as “decreases”. Further, in the data set with 8-OHdG, the “8-OHdG induced by UV-A radiation” value is given as “decreases”.
